What is called IC50 is the concentration needed to halve the response being measured. Lower therefore signals inhibition by little substance.

SMILES strings stand for the structures.

We go through seven compounds from patent publication US11091451B2, “SHMT inhibitors and uses thereof” (Raze Therapeutics, Inc., priority 2016, dated 2021).

Experiment [1] concerns the target human cytosolic Serine Hydroxymethyl transferase 1 (SHMT1) (Homo sapiens (Human), UniProt P34896). The experiment is described as follows: SHMT1 activity inhibition assay (serine production from glycine and CH2-THF, mass spectroscopy). It is filed as biochemical. As to conditions: 60 minutes at room temperature. The source says: (§1) Full length human cytosolic Serine Hydroxymethyl transferase 1 (SHMT1, residues 1-483 in Uniport ID P34896) was expressed as an N-terminal His6 tagged protein and purified in E. coli using nickel capture followed by size-exclusion chromatography. Human mitochondrial SHMT2 (residues 30-504 in Uniprot ID P34897) with mitochondrial leader sequence deleted was expressed as an N-terminal His6 tagged protein and purified in E. coli using nickel capture followed by size-exclusion chromatography.
(§2) Serine hydroxymethyltransferases catalyze the reversible hydroxymethylation of glycine to serine, with methylene tetrahydrofolate (CH2-THF) providing the additional carbon. SHMT1 and SHMT2 activity was determined by measuring serine production from glycine and CH2-THF using mass spectroscopy. Briefly, 15 ul of 0.5 mM glycine and 0.2 mM CH2-THF in 20 mM TEA, pH8.0, 0.2 mM NADPH were added to 384 well plate containing 0, 0.05 mM, 0.005 mM or 0.0005 mM of inhibitor. 15 ul of SHMT1 or 2 were added to initiate the reaction. The plate was incubated for 60 minutes at room temperature and the reaction was quenched by the addition of 30 ul of 10% trichloroacetic acid. Serine produced was analyzed using Rapidfire 360 and API4000^+ in the positive ion mode.

Experiment [2] has as its target Human mitochondrial SHMT2 (Homo sapiens (Human), UniProt P34897). Nature of the experiment: SHMT2 activity inhibition assay (serine production from glycine and CH2-THF, mass spectroscopy). The format is biochemical. As to conditions: 60 minutes at room temperature.
Excerpt: as §1
as §2, with “15 ul of SHMT1 or 2 were added to initiate the reaction.” left out

Sequence of Human mitochondrial SHMT2 (P34897 30-504): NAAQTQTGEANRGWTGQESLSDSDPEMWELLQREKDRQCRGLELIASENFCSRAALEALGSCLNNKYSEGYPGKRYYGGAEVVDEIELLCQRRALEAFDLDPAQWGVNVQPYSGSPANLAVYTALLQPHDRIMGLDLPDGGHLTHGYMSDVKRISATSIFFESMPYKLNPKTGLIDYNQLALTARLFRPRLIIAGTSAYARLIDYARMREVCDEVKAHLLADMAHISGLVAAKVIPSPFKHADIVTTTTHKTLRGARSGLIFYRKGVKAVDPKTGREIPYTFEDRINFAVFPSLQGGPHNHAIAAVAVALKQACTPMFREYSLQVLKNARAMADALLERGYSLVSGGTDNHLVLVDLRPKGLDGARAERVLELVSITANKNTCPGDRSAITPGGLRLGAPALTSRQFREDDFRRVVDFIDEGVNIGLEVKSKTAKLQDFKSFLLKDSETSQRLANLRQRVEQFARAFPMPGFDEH
Sequence of human cytosolic Serine Hydroxymethyl transferase 1 (SHMT1) (P34896 whole entry, the tested form may be a part): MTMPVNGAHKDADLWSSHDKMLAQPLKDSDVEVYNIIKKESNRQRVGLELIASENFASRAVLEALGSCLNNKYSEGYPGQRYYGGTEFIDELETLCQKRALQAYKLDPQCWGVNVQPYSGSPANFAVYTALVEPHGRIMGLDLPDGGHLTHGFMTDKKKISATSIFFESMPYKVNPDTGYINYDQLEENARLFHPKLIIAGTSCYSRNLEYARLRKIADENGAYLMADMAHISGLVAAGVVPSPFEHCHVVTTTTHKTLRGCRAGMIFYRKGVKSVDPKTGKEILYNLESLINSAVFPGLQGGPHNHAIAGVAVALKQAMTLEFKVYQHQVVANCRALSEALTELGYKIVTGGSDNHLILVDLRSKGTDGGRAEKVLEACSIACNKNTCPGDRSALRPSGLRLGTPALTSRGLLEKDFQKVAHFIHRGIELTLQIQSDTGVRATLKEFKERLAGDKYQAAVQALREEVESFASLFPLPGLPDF

On to `CC(C)(NC(=O)Cc1csc(-c2ccc(Cl)cc2-c2cccc(Cl)c2)n1)C(=O)O` [Compound I-6], for which the IC50 in experiment [1] and in experiment [2] was less than 1000 nM in each case.
In the case of `CC(C)(NC(=O)Cc1csc(-c2ccc3c(c2-c2ccccc2)OCCO3)n1)C(=O)O` [Compound I-2, 2-Methyl-2-[[2-[2-(5-phenyl-2,3-dihydro-1,4-benzodioxin-6-yl)thiazol-4-yl]acetyl]amino] propanoic Acid], the IC50 is less than 1000 nM in experiment [1] and 1000 to 10000 nM in experiment [2].
In the same order, the values of `CC(C)c1cc(Cl)ccc1-c1nc(CC(=O)NC(C)(C)C(=O)O)cs1` [Compound I-25] are 1000 to 10000 nM and less than 1000 nM.
For `CC(C)(NC(=O)Cc1cc(-c2ccc(Cl)cc2-c2ccccc2)ccn1)C(=O)O` [Compound I-23], in that order: 1000 to 10000 nM and 1000 to 10000 nM.
With `CC(C)(NC(=O)Cc1cccc(-c2ccc(Cl)cc2-c2ccccc2)n1)C(=O)O` [Compound I-18], the IC50 in experiment [1] was 1000 to 10000 nM; in experiment [2] it was less than 1000 nM.
With `Cc1ccc(-c2cc(Cl)ccc2-c2cccc(CC(=O)NC(C)(C)C(=O)O)c2)cc1` [Compound I-3, 2-[[2-[3-[4-Chloro-2-(p-tolyl)phenyl]phenyl]acetyl]amino]-2-methyl-propanoic Acid], the IC50 in experiment [1] and in experiment [2] was less than 1000 nM each time.
Consider `O=C(Cc1csc(-c2ccc(Cl)cc2Cl)n1)N[C@@H](Cc1ccccc1)C(=O)O` [Compound I-42], for which the concentration for half-maximal inhibition (IC50) was 10000 to 100000 nM in experiment [1] and 100000 to 500000 nM in experiment [2].
